ChEMBL document CHEMBL4840378 (J Med Chem, 2021)

What was measured:
[1] = Metabolic stability in rat liver S9 fraction assessed as compound remaining measured after 1 hr; type: ADME, subcellular; conditions: read-out: Stability
[2] = AUCinf in rat at 10 mg/kg, po; type: ADME, organism-based; design: route oral, time infinity, dose 10 mg/kg; conditions: in vivo
[3] = Clearance in rat at 2 mg/kg; type: ADME, organism-based; conditions: in vivo
[4] = Metabolic stability in human liver S9 fraction assessed as compound remaining measured after 1 hr; type: ADME, subcellular; conditions: read-out: Stability

Structure (SMILES)	remaining at 1 h [1] [%]	AUC(0-inf) [2] [µM·h]	clearance [3] [mL/min/kg]	remaining at 1 h [4] [%]
CC(C)(C)Nc1ncc(C(N)=O)c(N[C@@H]2CCC[C@H](O)C2)n1	98	10.8	78	93
CO[C@H]1CCC[C@@H](Nc2nc(N[C@H]3CC[C@H](OC)CC3)ncc2C(N)=O)C1	47			91
NC(=O)c1cnc(NC2CCCCC2)nc1N[C@@H]1CCC[C@H](O)C1	1			77
NC(=O)c1cnc(NC23CC(C2)C3)nc1N[C@@H]1CCC[C@H](O)C1	75	2.25		96
CO[C@H]1CC[C@H](Nc2ncc(C(N)=O)c(N[C@@H]3CCCC(F)(F)C3)n2)CC1 (mixture of isomers)	1			61
C[C@@H]1CC[C@@H](Nc2nc(NC(C)(C)C)ncc2C(N)=O)C[C@H]1O [CC-90001]		35.5	11	
